± gives the uncertainty stated by the source.
Test: xn = mol fraction of the nth substance listed

`CN(C)c1ccccc1` + CC(C)O showed a viscosity (303.15 K, 101 kPa, x1 = 0.0564) of 1.727 ± 0.016 mPa·s, a viscosity (303.15 K, 101 kPa, x1 = 0.1136) of 1.655 ± 0.015 mPa·s and a viscosity (303.15 K, 101 kPa, x1 = 0.1989) of 1.56 ± 0.015 mPa·s. The viscosity (303.15 K, 101 kPa, x1 = 0.2689) was 1.492 ± 0.014 mPa·s, the viscosity (303.15 K, 101 kPa, x1 = 0.3245) was 1.439 ± 0.014 mPa·s and the viscosity (303.15 K, 101 kPa, x1 = 0.3767) was 1.401 ± 0.013 mPa·s. The viscosity (303.15 K, 101 kPa, x1 = 0.4258) was 1.369 ± 0.013 mPa·s, the viscosity (303.15 K, 101 kPa, x1 = 0.4878) was 1.33 ± 0.013 mPa·s and the viscosity (303.15 K, 101 kPa, x1 = 0.5655) was 1.288 ± 0.013 mPa·s. The viscosity (303.15 K, 101 kPa, x1 = 0.6305) was 1.259 ± 0.012 mPa·s, the viscosity (303.15 K, 101 kPa, x1 = 0.7385) was 1.22 ± 0.012 mPa·s and the viscosity (303.15 K, 101 kPa, x1 = 0.8187) was 1.199 ± 0.012 mPa·s. It also gave a viscosity (303.15 K, 101 kPa, x1 = 0.9243) of 1.18 ± 0.012 mPa·s.
For `CCCCC(C)O` (stereo not given) + CC(C)OC(C)C, the viscosity (293.15 K, 100 kPa, x2 = 0.0806) was 4.51 ± 0.23 mPa·s, the viscosity (293.15 K, 100 kPa, x2 = 0.1592) was 3.97 ± 0.2 mPa·s and the viscosity (293.15 K, 100 kPa, x2 = 0.2412) was 3.48 ± 0.18 mPa·s. The viscosity (293.15 K, 100 kPa, x2 = 0.3508) was 2.91 ± 0.15 mPa·s, the viscosity (293.15 K, 100 kPa, x2 = 0.4391) was 2.49 ± 0.13 mPa·s and the viscosity (293.15 K, 100 kPa, x2 = 0.5594) was 1.97 ± 0.1 mPa·s. The viscosity (293.15 K, 100 kPa, x2 = 0.6497) was 1.6 ± 0.08 mPa·s, the viscosity (293.15 K, 100 kPa, x2 = 0.7378) was 1.26 ± 0.06 mPa·s and the viscosity (293.15 K, 100 kPa, x2 = 0.8483) was 0.84 ± 0.04 mPa·s. It also gave a viscosity (293.15 K, 100 kPa, x2 = 0.9386) of 0.531 ± 0.027 mPa·s, a viscosity (298.15 K, 100 kPa, x2 = 0.0806) of 3.61 ± 0.18 mPa·s and a viscosity (298.15 K, 100 kPa, x2 = 0.1592) of 3.16 ± 0.16 mPa·s. For the same compound, the viscosity (298.15 K, 100 kPa, x2 = 0.2412) was 2.76 ± 0.14 mPa·s, the viscosity (298.15 K, 100 kPa, x2 = 0.3508) was 2.3 ± 0.12 mPa·s and the viscosity (298.15 K, 100 kPa, x2 = 0.4391) was 1.97 ± 0.1 mPa·s. It also gave a viscosity (298.15 K, 100 kPa, x2 = 0.5594) of 1.56 ± 0.08 mPa·s, a viscosity (298.15 K, 100 kPa, x2 = 0.6497) of 1.275 ± 0.065 mPa·s and a viscosity (298.15 K, 100 kPa, x2 = 0.7378) of 1.02 ± 0.05 mPa·s. For the same compound, the viscosity (298.15 K, 100 kPa, x2 = 0.8483) was 0.706 ± 0.036 mPa·s, the viscosity (298.15 K, 100 kPa, x2 = 0.9386) was 0.465 ± 0.024 mPa·s and the viscosity (303.15 K, 100 kPa, x2 = 0.0806) was 2.89 ± 0.15 mPa·s. It also gave a viscosity (303.15 K, 100 kPa, x2 = 0.1592) of 2.53 ± 0.13 mPa·s, a viscosity (303.15 K, 100 kPa, x2 = 0.2412) of 2.2 ± 0.11 mPa·s and a viscosity (303.15 K, 100 kPa, x2 = 0.3508) of 1.83 ± 0.09 mPa·s. For the same compound, the viscosity (303.15 K, 100 kPa, x2 = 0.4391) was 1.567 ± 0.079 mPa·s, the viscosity (303.15 K, 100 kPa, x2 = 0.5594) was 1.25 ± 0.06 mPa·s and the viscosity (303.15 K, 100 kPa, x2 = 0.6497) was 1.034 ± 0.052 mPa·s. The viscosity (303.15 K, 100 kPa, x2 = 0.7378) was 0.84 ± 0.04 mPa·s, the viscosity (303.15 K, 100 kPa, x2 = 0.8483) was 0.6 ± 0.03 mPa·s and the viscosity (303.15 K, 100 kPa, x2 = 0.9386) was 0.42 ± 0.02 mPa·s. The viscosity (308.15 K, 100 kPa, x2 = 0.0806) was 2.38 ± 0.12 mPa·s, the viscosity (308.15 K, 100 kPa, x2 = 0.1592) was 2.08 ± 0.11 mPa·s and the viscosity (308.15 K, 100 kPa, x2 = 0.2412) was 1.825 ± 0.092 mPa·s. For the same compound, the viscosity (308.15 K, 100 kPa, x2 = 0.3508) was 1.53 ± 0.08 mPa·s, the viscosity (308.15 K, 100 kPa, x2 = 0.4391) was 1.32 ± 0.07 mPa·s and the viscosity (308.15 K, 100 kPa, x2 = 0.5594) was 1.06 ± 0.05 mPa·s. It also gave a viscosity (308.15 K, 100 kPa, x2 = 0.6497) of 0.88 ± 0.04 mPa·s, a viscosity (308.15 K, 100 kPa, x2 = 0.7378) of 0.715 ± 0.036 mPa·s and a viscosity (308.15 K, 100 kPa, x2 = 0.8483) of 0.52 ± 0.03 mPa·s. For the same compound, the viscosity (308.15 K, 100 kPa, x2 = 0.9386) was 0.38 ± 0.02 mPa·s, the viscosity (313.15 K, 100 kPa, x2 = 0.0806) was 2 ± 0.1 mPa·s and the viscosity (313.15 K, 100 kPa, x2 = 0.1592) was 1.75 ± 0.09 mPa·s. The viscosity (313.15 K, 100 kPa, x2 = 0.2412) was 1.54 ± 0.08 mPa·s, the viscosity (313.15 K, 100 kPa, x2 = 0.3508) was 1.29 ± 0.07 mPa·s and the viscosity (313.15 K, 100 kPa, x2 = 0.4391) was 1.115 ± 0.056 mPa·s. The viscosity (313.15 K, 100 kPa, x2 = 0.5594) was 0.906 ± 0.046 mPa·s, the viscosity (313.15 K, 100 kPa, x2 = 0.6497) was 0.756 ± 0.038 mPa·s and the viscosity (313.15 K, 100 kPa, x2 = 0.7378) was 0.62 ± 0.03 mPa·s. For the same compound, the viscosity (313.15 K, 100 kPa, x2 = 0.8483) was 0.46 ± 0.02 mPa·s, the viscosity (313.15 K, 100 kPa, x2 = 0.9386) was 0.35 ± 0.02 mPa·s and the viscosity (318.15 K, 100 kPa, x2 = 0.0806) was 1.69 ± 0.09 mPa·s. For the same compound, the viscosity (318.15 K, 100 kPa, x2 = 0.1592) was 1.49 ± 0.08 mPa·s, the viscosity (318.15 K, 100 kPa, x2 = 0.2412) was 1.31 ± 0.07 mPa·s and the viscosity (318.15 K, 100 kPa, x2 = 0.3508) was 1.11 ± 0.06 mPa·s. It also gave a viscosity (318.15 K, 100 kPa, x2 = 0.4391) of 0.962 ± 0.049 mPa·s, a viscosity (318.15 K, 100 kPa, x2 = 0.5594) of 0.783 ± 0.04 mPa·s and a viscosity (318.15 K, 100 kPa, x2 = 0.6497) of 0.66 ± 0.03 mPa·s. It also gave a viscosity (318.15 K, 100 kPa, x2 = 0.7378) of 0.55 ± 0.03 mPa·s, a viscosity (318.15 K, 100 kPa, x2 = 0.8483) of 0.416 ± 0.021 mPa·s and a viscosity (318.15 K, 100 kPa, x2 = 0.9386) of 0.32 ± 0.02 mPa·s. The viscosity (323.15 K, 100 kPa, x2 = 0.0806) was 1.44 ± 0.07 mPa·s, the viscosity (323.15 K, 100 kPa, x2 = 0.1592) was 1.27 ± 0.06 mPa·s and the viscosity (323.15 K, 100 kPa, x2 = 0.2412) was 1.12 ± 0.06 mPa·s. It also gave a viscosity (323.15 K, 100 kPa, x2 = 0.3508) of 0.95 ± 0.05 mPa·s, a viscosity (323.15 K, 100 kPa, x2 = 0.4391) of 0.83 ± 0.04 mPa·s and a viscosity (323.15 K, 100 kPa, x2 = 0.5594) of 0.68 ± 0.04 mPa·s. It also gave a viscosity (323.15 K, 100 kPa, x2 = 0.6497) of 0.58 ± 0.03 mPa·s, a viscosity (323.15 K, 100 kPa, x2 = 0.7378) of 0.49 ± 0.03 mPa·s and a viscosity (323.15 K, 100 kPa, x2 = 0.8483) of 0.38 ± 0.02 mPa·s. It also gave a viscosity (323.15 K, 100 kPa, x2 = 0.9386) of 0.295 ± 0.015 mPa·s.
For `FC(F)(F)c1ccccc1` + CC(Cl)(Cl)Cl, the viscosity (298.15 K, 101.33 kPa, x2 = 0.103) was 0.5617 ± 0.0058 mPa·s, the viscosity (298.15 K, 101.33 kPa, x2 = 0.201) was 0.572 ± 0.0058 mPa·s and the viscosity (298.15 K, 101.33 kPa, x2 = 0.301) was 0.5865 ± 0.006 mPa·s. For the same compound, the viscosity (298.15 K, 101.33 kPa, x2 = 0.402) was 0.6017 ± 0.0061 mPa·s, the viscosity (298.15 K, 101.33 kPa, x2 = 0.502) was 0.6199 ± 0.0063 mPa·s and the viscosity (298.15 K, 101.33 kPa, x2 = 0.602) was 0.6413 ± 0.0064 mPa·s. For the same compound, the viscosity (298.15 K, 101.33 kPa, x2 = 0.701) was 0.6677 ± 0.0067 mPa·s, the viscosity (298.15 K, 101.33 kPa, x2 = 0.8) was 0.7 ± 0.007 mPa·s and the viscosity (298.15 K, 101.33 kPa, x2 = 0.85) was 0.7179 ± 0.0071 mPa·s.
`CN(C)c1ccccc1` + CCC(=O)O showed a viscosity (298.15 K, 101 kPa, x2 = 0.1014) of 1.364 ± 0.015 mPa·s, a viscosity (298.15 K, 101 kPa, x2 = 0.2025) of 1.416 ± 0.015 mPa·s and a viscosity (298.15 K, 101 kPa, x2 = 0.305) of 1.478 ± 0.016 mPa·s. For the same compound, the viscosity (298.15 K, 101 kPa, x2 = 0.3966) was 1.527 ± 0.016 mPa·s, the viscosity (298.15 K, 101 kPa, x2 = 0.5057) was 1.583 ± 0.016 mPa·s and the viscosity (298.15 K, 101 kPa, x2 = 0.6027) was 1.651 ± 0.017 mPa·s. It also gave a viscosity (298.15 K, 101 kPa, x2 = 0.6922) of 1.69 ± 0.017 mPa·s, a viscosity (298.15 K, 101 kPa, x2 = 0.8012) of 1.657 ± 0.017 mPa·s and a viscosity (298.15 K, 101 kPa, x2 = 0.8905) of 1.467 ± 0.016 mPa·s. It also gave a viscosity (303.15 K, 101 kPa, x2 = 0.8987) of 1.225 ± 0.039 mPa·s.
Work on `C=CC#N` + CCC(=O)c1ccccc1 yielded a viscosity (308.15 K, 101 kPa, x2 = 0.1051) of 0.405 ± 0.0043 mPa·s, a viscosity (308.15 K, 101 kPa, x2 = 0.1752) of 0.4545 ± 0.0048 mPa·s and a viscosity (308.15 K, 101 kPa, x2 = 0.2496) of 0.513 ± 0.0053 mPa·s. For the same compound, the viscosity (308.15 K, 101 kPa, x2 = 0.3126) was 0.5731 ± 0.0058 mPa·s, the viscosity (308.15 K, 101 kPa, x2 = 0.4246) was 0.6893 ± 0.0068 mPa·s and the viscosity (308.15 K, 101 kPa, x2 = 0.5385) was 0.8078 ± 0.0078 mPa·s. For the same compound, the viscosity (308.15 K, 101 kPa, x2 = 0.6672) was 0.9571 ± 0.009 mPa·s and the viscosity (308.15 K, 101 kPa, x2 = 0.8184) was 1.161 ± 0.011 mPa·s.

From the CheMixHub viscosity set
